Results as given in PMC9645344, “Serotonin-releasing agents with reduced off-target effects” (Molecular Psychiatry, 2022).

Tests used:
[1] = system: extracellular DA in the NAc; assay: Fiber photometry with GRABDA sensor in the NAc; type: in vivo, mice
Protocol: All in vivo experiments were performed in adult mice (>6 weeks old). For the photometry and microdialysis experiments, which were carried out in Florida, male C57BL/6J mice from The Jackson Laboratory (Bar Harbor, ME, USA) were group-housed in polycarbonate cages (GM500, Tecniplast, Buguggiate, Italy) with lights on from 7 a.m. to 7 p.m. Food and water were provided ad libitum. Photometry and microdialysis experiments were performed in accordance with a protocol approved by the Institutional Animal Care and Use Committee at Florida Atlantic University. […]
Mice were anesthetized with isoflurane (5% induction, 2% maintenance) and placed into a stereotaxic frame (Kopf Instruments, Tujunga, CA, USA) oriented in the flat skull position. […] Fascia was removed, coordinates for the NAc were determined relative to bregma: anterior/posterior = 1.54 mm; medial/lateral = 0.7 mm; dorsal/ventral = −4.1 mm. […]
To monitor light emitted from the G-protein coupled receptor-activation-based 5-HT (GRAB5-HT) and DA (GRABDA) sensors, fiber photometry was performed as described. […] Emitted, band-pass filtered light (500–550 nm, FMC6, Doric Lenses, Quebec,QC, Canada) was detected with a photodetector (Newport Femtowatt silicone PIN; New Focus, San Jose, CA, USA). Data were recorded using a RZ5P lock-in amplifier (Tucker-Davis Technologies, Alachua, FL, USA) controlled with Synapse software. […]

[2] = target: T1, human SERT (Homo sapiens, UniProt P31645); assay: [3H]5-HT release assay in HEK293 cells (superfusion); type: cell-based; details: 10 µM, SERT-expressing HEK293 cells
T1 construct: expressed in transfected cells
T1 sequence (P31645 whole entry, the tested form may be a part): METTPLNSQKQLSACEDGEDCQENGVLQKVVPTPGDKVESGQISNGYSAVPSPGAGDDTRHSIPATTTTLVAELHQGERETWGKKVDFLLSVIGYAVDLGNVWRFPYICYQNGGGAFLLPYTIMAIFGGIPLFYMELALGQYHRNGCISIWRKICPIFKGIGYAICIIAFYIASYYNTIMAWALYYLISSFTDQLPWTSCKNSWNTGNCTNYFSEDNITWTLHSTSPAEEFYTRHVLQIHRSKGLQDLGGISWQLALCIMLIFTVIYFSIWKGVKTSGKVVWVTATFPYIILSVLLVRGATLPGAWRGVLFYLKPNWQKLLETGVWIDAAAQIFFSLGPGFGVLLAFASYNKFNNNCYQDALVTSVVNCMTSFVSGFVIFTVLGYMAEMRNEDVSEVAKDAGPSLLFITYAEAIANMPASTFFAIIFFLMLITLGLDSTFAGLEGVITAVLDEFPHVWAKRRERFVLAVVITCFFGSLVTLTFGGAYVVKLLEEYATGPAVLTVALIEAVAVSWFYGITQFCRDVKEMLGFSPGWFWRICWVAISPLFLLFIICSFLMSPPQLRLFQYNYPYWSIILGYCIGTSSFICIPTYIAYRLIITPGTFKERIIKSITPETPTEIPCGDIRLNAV
Protocol: HEK293 cells stably expressing SERT were seeded onto PDL-coated glass coverslips (5 mm diameter) that were placed into 96-well plates at a density of 40,000 cells per well the day before the experiment. Cells were preloaded with [^3H]5-HT (0.4 µM, 20 min at 37 °C). Subsequently, the cells were transferred into small chambers with a total volume of 200 µl and superfused with KHB at a flow rate of 0.7 ml per min for 40 min to establish a stable baseline before the collection of 2-min fractions was initiated. For each experiment, three basal fractions were collected before the cells were exposed to various concentrations (given in the figure legends) of the test drugs for five fractions. Subsequently, the cells were superfused with 1% SDS for three final fractions that served to determine the total amount of radioactivity present within the cells at the end of each experimental run. The amount of tritium within each fraction was determined by liquid scintillation counting, and release was expressed as percentage of radioactivity released in relation to the total radioactivity present at the beginning of that fraction. Observations from superfusion experiments were excluded in case of premature exposure to SDS.

[3] = system: extracellular 5-HT and DA in the NAc; assay: In vivo microdialysis in the NAc of freely moving mice
Protocol: (§1) All in vivo experiments were performed in adult mice (>6 weeks old). For the photometry and microdialysis experiments, which were carried out in Florida, male C57BL/6J mice from The Jackson Laboratory (Bar Harbor, ME, USA) were group-housed in polycarbonate cages (GM500, Tecniplast, Buguggiate, Italy) with lights on from 7 a.m. to 7 p.m. Food and water were provided ad libitum. Photometry and microdialysis experiments were performed in accordance with a protocol approved by the Institutional Animal Care and Use Committee at Florida Atlantic University. For the behavioral experiments, which were carried out in Vienna, C57BL/6N mice from Charles River (Sulzfeld, Germany) were group-housed in polycarbonate cages with lights on from 7 a.m. to 7 p.m. Food and water were provided ad libitum. Behavioral experiments were performed in accordance with a protocol approved by the Austrian national ethical committee on animal care and use (Bundesministerium für Wissenschaft und Forschung: BMWFW-66.009/0016-WF/V/3b/2015). All animal procedures were conducted in agreement with the ARRIVE guidelines and the U.K. Animal (Scientific Procedures) Act, 1986, and associated guidelines, EU Directive 2010/63/EU for animal experiments. Mice were given at least 1 week to acclimate before being used in any experiments.
Mice were anesthetized with isoflurane (5% induction, 2% maintenance) and placed into a stereotaxic frame (Kopf Instruments, Tujunga, CA, USA) oriented in the flat skull position. Ophthalmic ointment was applied to prevent drying of the eyes. Ketoprofen (10 mg kg^−1) was administered subcutaneously (s.c.), whereas bupivacaine and lidocaine were administered locally (s.c.; 100 µl of sterile saline containing 0.05% bupivacaine and 0.2% lidocaine) to the surgical site atop the head. A midline incision was made through the skin on the dorsal surface of the head to expose the skull. Fascia was removed, coordinates for the NAc were determined relative to bregma: anterior/posterior = 1.54 mm; medial/lateral = 0.7 mm; dorsal/ventral = −4.1 mm. A 1 mm burr hole was drilled through the skull. […]
Microdialysis was performed based on a previous publication. […] Dialysate samples were collected on ice and stored at −80 °C until they were analyzed using high-performance liquid chromatography with electrochemical detection. Drug-induced changes in extracellular DA and 5-HT were expressed as fold change compared to basal monoamine levels obtained during the first three pretreatment samples.

[4] = system: C57BL/6N mice; assay: Forced-swim test (FST); type: in vivo; details: for immobility time in the FST versus vehicle: mice
Protocol: as §1
For behavioral assays, animals were assigned to treatment groups and injected with test drugs by an unblinded observer.
The FST was performed as previously described. In brief, mice were placed for 6 min in a beaker (diameter: 19 cm, height: 23 cm), halfway filled with water (22–23 °C), and the immobility time was quantified using the software Videotrack (Viewpoint, Champagne au Mont d’Or, France). Immobility was defined as the absence of any movement, except for those required to keep the head above the water. The time spent immobile during the final 4 min of the test was used as a measure of behavioral despair. Animal sample size was confirmed using a post hoc analysis of the achieved power using G*Power3.1 [29]. Using a significance level (α) of 0.05 and an effect size f = 2.5 and a sample size of 6 animals/group we achieved the commonly accepted statistical power (1−β) of 0.8.

[5] = 5 mg kg-1 with or without fluoxetine 10 mg kg-1, repeated measures two-way ANOVA

Row | SMILES | basal DA levels in the NAc (GRABDA fluorescence) ([1]; 5 mg kg-1 intraperitoneal) | effect on release of preloaded [3H]5-HT [2] | dialysate 5-HT versus baseline ([3]; 5 mg kg-1 intraperitoneal, NAc) | effect of drug treatment (alone versus plus fluoxetine) on dialysate 5-HT [3, 5] | effect of drug treatment (alone versus plus fluoxetine) on dialysate DA [3, 5] | immobility time in the FST versus vehicle ([4]; 1 mg kg-1 intraperitoneal) | time spent immobile in the FST, male and female mice ([4]; 5 mg kg-1 intraperitoneal) | immobility time in the FST versus vehicle ([4]; 5 mg kg-1 intraperitoneal) | immobility time in the FST versus vehicle ([4]; 10 mg kg-1 intraperitoneal) | basal DA levels in the NAc (GRABDA fluorescence) ([1]; 10 mg kg-1 intraperitoneal) | dialysate 5-HT with co-administered fluoxetine ([3]; 10 mg kg-1 intraperitoneal plus fluoxetine 10 mg kg-1) | time spent immobile in the FST, male and female mice ([4]; 10 mg kg-1 intraperitoneal)
1 | Cc1ccc(C(=O)[C@H](C)N)cc1 [S-4-MC, 4-methylcathinone] | neither S-4-MC, nor S-4-TFMMC significantly elevated the basal DA levels | robustly increased | significantly elevated 5-HT in the dialysate | drug-treatment significantly affected 5-HT in the dialysate | but not DA | significantly reduced immobility time versus vehicle | significantly reduced the time spent immobile regardless of sex | significantly reduced immobility time versus vehicle | significantly reduced immobility time versus vehicle |  |  | 
2 | CN[C@@H](C)C(=O)c1ccc(C(F)(F)F)cc1 [S-4-TFMMC, 4-trifluoromethyl-N-methylcathinone] |  | robustly increased |  |  |  |  |  |  | significantly differed from the vehicle group | neither S-4-MC, nor S-4-TFMMC significantly elevated the basal DA levels | fluoxetine markedly blunted the amount of dialysate 5-HT | significantly reduced the time spent immobile regardless of sex
